The values that follow come from PMC9719519, “Non-classical ferroptosis inhibition by a small molecule targeting PHB2” (Nature Communications, 2022).

Test in all cases: biochemical
Holding throughout (design): Eurofins recombinant human kinase profiling, remaining kinase activity as % of control, 10 uM ATP
Common to all, as to settings: ATP 10 uM; read-out: %Ctrl@10 μM

Experiment [1] has as its target CDK12/cyclinK(h) (Homo sapiens, UniProt Q9NYV4). The method in brief: (§1)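 Recombinant human kinases, 401 in total, screened using an outsourced kinase profiling assay.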
Experiment [2] has as its target mTOR/FKBP12(h) (Homo sapiens, UniProt P42345). The method in brief: as §1
Experiment [3] deals with ErbB4(h) (Homo sapiens, UniProt Q15303). The method in brief: as §1
Experiment [4] has as its target CLK2(h) (Homo sapiens, UniProt P49760). The method in brief: as §1
Experiment [5] addresses SGK2(h) (Homo sapiens, UniProt Q9HBY8). In short, it runs like this:
as §1

The target of experiment [6] is T1, CK1γ2(h) (Homo sapiens, UniProt P78368).
T1 construct: gene CSNK1G2
The method in brief: as §1

Experiment [7] deals with T2, PKCα(h) (Homo sapiens, UniProt P17252).
T2 construct: gene PRKCA
In short, it runs like this: as §1

For experiment [8], the target named is Plk1(h) (Homo sapiens, UniProt P53350). In short, it runs like this: as §1
Experiment [9] has as its target T3, CDK5/p25(h) (Homo sapiens, UniProt Q00535).
T3 construct: p25
In short, it runs like this: as §1

For experiment [10], the target named is CDK18/cyclinY(h) (Homo sapiens, UniProt Q07002). The method in brief: as §1
Experiment [11] concerns the target GRK6(h) (Homo sapiens, UniProt P43250). The method in brief:
as §1

The target in experiment [12] is SNRK(h) (Homo sapiens, UniProt Q9NRH2). In short, it runs like this: as §1
In experiment [13] the target is T4, ACK1(h) (Homo sapiens, UniProt Q07912).
T4 construct: gene TNK2
In short, it runs like this:
as §1

Experiment [14] addresses T5, CaMKI(h) (Homo sapiens, UniProt Q14012).
T5 construct: gene CAMK1
In short, it runs like this: as §1

For experiment [15], the target named is SGK3(h) (Homo sapiens, UniProt Q96BR1). In short, it runs like this:
as §1

Experiment [16] concerns the target NLK(h) (Homo sapiens, UniProt Q9UBE8). The method in brief: as §1
Experiment [17] addresses DYRK1A(h) (Homo sapiens, UniProt Q13627). The method in brief: as §1
Experiment [18] addresses T6, Abl(h) (Homo sapiens, UniProt P00519).
T6 construct: gene ABL1
The method in brief:
as §1

For experiment [19], the target named is T7, MEKK3(h) (Homo sapiens, UniProt Q99759).
T7 construct: gene MAP3K3
In short, it runs like this:
as §1

In experiment [20] the target is BrSK2(h) (Homo sapiens, UniProt Q8IWQ3). In short, it runs like this: as §1
Experiment [21] addresses T8, MKK6(h) (Homo sapiens, UniProt P52564).
T8 construct: gene MAP2K6
In short, it runs like this:
as §1

Experiment [22] has as its target GRK5(h) (Homo sapiens, UniProt P34947). The method in brief: as §1
For experiment [23], the target named is CDK1/cyclinB(h) (Homo sapiens, UniProt P06493). The method in brief:
as §1

Sequence of Plk1(h) (P53350 whole entry): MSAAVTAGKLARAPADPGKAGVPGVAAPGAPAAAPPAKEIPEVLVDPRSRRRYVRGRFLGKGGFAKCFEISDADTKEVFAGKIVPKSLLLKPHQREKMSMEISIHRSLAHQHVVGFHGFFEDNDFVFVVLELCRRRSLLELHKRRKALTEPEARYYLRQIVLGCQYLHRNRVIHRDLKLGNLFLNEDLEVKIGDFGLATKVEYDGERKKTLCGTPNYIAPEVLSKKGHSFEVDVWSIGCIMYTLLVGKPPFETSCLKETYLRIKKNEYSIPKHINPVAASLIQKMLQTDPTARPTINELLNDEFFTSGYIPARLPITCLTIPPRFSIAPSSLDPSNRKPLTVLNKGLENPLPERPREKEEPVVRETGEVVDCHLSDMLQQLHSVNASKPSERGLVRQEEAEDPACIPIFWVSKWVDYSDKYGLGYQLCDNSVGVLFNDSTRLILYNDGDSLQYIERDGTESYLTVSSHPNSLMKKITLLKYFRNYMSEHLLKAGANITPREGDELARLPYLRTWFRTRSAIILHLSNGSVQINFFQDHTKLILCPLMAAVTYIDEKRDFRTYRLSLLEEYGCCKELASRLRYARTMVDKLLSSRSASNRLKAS
Sequence of CDK18/cyclinY(h) (Q07002 whole entry): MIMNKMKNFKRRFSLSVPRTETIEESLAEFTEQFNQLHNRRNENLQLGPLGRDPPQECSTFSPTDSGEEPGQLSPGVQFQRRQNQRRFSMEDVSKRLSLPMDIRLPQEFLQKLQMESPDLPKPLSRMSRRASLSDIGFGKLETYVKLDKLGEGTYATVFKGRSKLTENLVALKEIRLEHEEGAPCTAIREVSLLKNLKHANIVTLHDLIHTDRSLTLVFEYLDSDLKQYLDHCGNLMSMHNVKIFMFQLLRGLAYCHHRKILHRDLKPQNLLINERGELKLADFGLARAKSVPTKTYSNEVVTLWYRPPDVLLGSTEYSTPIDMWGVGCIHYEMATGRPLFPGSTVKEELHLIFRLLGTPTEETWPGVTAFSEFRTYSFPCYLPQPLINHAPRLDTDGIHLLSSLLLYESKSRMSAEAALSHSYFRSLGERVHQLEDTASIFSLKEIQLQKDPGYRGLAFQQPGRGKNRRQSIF
Sequence of CDK18/cyclinY(h) (Q8ND76 whole entry partner): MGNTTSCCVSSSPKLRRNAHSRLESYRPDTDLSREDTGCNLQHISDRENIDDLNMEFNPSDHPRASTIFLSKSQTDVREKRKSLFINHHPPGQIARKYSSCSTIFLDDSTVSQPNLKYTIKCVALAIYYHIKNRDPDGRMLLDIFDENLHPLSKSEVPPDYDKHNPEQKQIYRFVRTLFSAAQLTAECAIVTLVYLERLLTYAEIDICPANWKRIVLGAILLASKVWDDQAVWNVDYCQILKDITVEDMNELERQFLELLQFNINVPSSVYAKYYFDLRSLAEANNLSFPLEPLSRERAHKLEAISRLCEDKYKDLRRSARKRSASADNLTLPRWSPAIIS
Sequence of GRK5(h) (P34947 whole entry): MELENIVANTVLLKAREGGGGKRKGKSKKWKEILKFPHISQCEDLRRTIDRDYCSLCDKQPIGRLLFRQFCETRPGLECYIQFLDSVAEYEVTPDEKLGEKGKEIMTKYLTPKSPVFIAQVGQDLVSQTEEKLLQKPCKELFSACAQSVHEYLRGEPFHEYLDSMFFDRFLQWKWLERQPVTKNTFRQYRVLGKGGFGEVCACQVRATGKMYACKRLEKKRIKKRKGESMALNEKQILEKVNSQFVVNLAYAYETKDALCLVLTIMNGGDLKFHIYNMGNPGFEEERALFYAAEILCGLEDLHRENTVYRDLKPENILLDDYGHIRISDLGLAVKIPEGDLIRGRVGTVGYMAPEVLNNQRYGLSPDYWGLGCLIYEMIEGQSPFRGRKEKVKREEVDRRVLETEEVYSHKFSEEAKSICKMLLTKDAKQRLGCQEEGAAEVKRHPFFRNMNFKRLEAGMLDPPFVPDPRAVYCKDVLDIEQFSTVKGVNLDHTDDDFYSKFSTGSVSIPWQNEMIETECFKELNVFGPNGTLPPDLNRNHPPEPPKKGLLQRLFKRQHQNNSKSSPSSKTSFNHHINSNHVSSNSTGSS
T8 sequence (P52564 whole entry): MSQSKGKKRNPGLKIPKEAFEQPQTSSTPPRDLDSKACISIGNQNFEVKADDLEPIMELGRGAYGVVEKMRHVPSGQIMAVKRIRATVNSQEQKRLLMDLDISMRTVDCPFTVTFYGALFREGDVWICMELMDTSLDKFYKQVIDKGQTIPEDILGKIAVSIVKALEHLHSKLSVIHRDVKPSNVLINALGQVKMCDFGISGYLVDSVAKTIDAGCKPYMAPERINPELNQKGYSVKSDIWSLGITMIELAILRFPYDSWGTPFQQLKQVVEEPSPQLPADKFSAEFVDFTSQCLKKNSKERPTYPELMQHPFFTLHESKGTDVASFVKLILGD
Sequence of SNRK(h) (Q9NRH2 whole entry): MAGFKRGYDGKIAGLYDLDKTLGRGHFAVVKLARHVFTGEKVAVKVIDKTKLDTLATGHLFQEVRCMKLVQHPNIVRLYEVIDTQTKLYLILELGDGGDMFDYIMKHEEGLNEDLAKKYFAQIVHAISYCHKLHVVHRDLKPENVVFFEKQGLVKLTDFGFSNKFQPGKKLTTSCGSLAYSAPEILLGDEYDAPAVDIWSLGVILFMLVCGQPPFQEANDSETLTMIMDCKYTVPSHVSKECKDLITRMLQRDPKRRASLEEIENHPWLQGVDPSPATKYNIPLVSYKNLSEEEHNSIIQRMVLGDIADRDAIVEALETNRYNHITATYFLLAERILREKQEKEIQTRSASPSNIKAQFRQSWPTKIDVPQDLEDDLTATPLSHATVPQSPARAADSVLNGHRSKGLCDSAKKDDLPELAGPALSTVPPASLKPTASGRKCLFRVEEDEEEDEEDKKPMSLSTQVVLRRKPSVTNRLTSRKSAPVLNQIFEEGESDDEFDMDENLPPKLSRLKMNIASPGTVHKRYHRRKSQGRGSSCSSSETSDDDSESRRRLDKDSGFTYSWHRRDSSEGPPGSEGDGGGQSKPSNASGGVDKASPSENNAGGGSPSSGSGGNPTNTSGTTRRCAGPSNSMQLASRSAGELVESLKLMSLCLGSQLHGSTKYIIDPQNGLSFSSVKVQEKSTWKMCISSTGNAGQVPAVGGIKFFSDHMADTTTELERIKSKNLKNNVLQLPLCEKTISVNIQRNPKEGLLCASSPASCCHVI
Sequence of CDK1/cyclinB(h) (P06493 whole entry): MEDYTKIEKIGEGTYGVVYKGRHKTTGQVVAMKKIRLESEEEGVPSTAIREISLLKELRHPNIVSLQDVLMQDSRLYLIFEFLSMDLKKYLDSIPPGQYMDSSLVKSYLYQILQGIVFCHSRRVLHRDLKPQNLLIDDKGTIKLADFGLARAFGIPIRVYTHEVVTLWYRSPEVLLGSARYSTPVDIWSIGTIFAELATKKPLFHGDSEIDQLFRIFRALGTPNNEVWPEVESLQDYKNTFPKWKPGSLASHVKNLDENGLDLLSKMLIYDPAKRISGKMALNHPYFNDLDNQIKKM
Sequence of CDK1/cyclinB(h) (P14635 whole entry partner): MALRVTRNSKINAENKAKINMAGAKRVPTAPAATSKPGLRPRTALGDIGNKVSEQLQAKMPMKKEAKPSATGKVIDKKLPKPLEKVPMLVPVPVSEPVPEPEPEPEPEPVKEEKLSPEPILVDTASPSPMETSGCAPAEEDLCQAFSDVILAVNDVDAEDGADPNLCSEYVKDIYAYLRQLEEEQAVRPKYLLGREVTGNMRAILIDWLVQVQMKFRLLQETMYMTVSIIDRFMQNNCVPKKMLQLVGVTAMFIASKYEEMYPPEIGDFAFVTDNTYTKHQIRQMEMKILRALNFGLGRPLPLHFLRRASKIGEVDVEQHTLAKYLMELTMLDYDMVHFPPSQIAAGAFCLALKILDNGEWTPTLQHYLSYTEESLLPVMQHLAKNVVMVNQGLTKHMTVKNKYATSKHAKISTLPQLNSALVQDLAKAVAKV
T5 sequence (Q14012 whole entry): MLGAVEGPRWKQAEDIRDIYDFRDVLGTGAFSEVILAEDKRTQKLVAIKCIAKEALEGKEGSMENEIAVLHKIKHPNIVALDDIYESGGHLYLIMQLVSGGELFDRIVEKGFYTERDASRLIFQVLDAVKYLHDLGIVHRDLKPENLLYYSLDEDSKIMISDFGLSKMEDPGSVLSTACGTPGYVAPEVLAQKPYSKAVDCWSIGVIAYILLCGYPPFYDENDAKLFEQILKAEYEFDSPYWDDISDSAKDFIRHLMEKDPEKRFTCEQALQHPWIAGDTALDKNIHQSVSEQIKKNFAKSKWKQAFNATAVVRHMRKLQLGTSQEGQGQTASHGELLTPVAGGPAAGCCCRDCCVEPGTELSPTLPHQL

For `C1=C(c2nc(-c3cnn(C4CCNCC4)c3)cn3cc(-c4ccccc4)nc23)CCOC1` [YL-939], the remaining activity at 10 µM in experiment [1] amounted to 99%; in [2], 88%; in experiment [3], 99%; in experiment [4], 71%; in experiment [5], 96%; in experiment [6], 90%. Besides, the remaining activity at 10 µM in experiment [7] turned out to be 104%; in experiment [8] it was 84%; in [9], 120%; in experiment [10] it was 97%; in experiment [11], 87%; in experiment [12], 100%. Further, the remaining activity at 10 µM amounted to 85% in experiment [13]; 81% in [14]; 83% in [15]; 86% in experiment [16]; 83% in [17]; 102% in experiment [18]. Moreover, the remaining activity at 10 µM was 108% in experiment [19]; 101% in [20]; 106% in [21]; 72% in experiment [22]; 92% in experiment [23].
